The values that follow come from ChEMBL document CHEMBL4842314, “Synthesis and SAR evaluation of coumarin derivatives as potent cannabinoid receptor agonists” (Eur J Med Chem, 2021).

What all share (assay type): cell membranes
Assay [1] addresses T1, Cannabinoid receptor 2 (Homo sapiens, UniProt P34972). The assay can be described thus: Displacement of [3H]-CP55940 from human recombinant CB2 receptor expressed in CHO-K1 cell membrane at 1 uM measured after 3 hrs by scintillation spectrometry.
In assay [2] the target is T2, Cannabinoid receptor 1 (Homo sapiens, UniProt P21554). The assay can be described thus: Displacement of [3H]-CP55940 from human recombinant CB1 receptor expressed in CHO-K1 cell membrane at 1 uM measured after 3 hrs by scintillation spectrometry. A general note: Loss of bound radioactivity is the signal in a displacement assay; it reports binding, not function.
T2 sequence (P21554 whole entry): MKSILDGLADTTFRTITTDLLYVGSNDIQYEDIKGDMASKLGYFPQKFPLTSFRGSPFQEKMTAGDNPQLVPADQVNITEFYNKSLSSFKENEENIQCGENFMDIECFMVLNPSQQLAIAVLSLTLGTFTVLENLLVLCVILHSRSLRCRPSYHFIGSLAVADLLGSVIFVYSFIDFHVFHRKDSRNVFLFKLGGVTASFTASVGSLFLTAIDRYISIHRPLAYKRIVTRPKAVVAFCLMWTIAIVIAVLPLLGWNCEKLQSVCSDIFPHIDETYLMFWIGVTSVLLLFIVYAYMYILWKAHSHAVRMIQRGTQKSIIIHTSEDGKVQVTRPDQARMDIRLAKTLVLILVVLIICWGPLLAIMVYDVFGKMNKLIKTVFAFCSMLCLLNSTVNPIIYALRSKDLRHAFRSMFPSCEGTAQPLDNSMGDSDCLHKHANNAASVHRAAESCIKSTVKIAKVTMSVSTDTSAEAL
For assay [3], the target named is T1, Cannabinoid receptor 2. The assay can be described thus: Displacement of [3H]-CP55940 from human recombinant CB2 receptor expressed in CHO-K1 cell membrane measured after 3 hrs by scintillation spectrometry. Particulars: read-out: pKi (converted).
For assay [4], the target named is T2, Cannabinoid receptor 1. The experiment in a line: Displacement of [3H]-CP55940 from human recombinant CB1 receptor expressed in CHO-K1 cell membrane measured after 3 hrs by scintillation spectrometry.

Structures are written as SMILES.

T1 sequence (P34972 whole entry): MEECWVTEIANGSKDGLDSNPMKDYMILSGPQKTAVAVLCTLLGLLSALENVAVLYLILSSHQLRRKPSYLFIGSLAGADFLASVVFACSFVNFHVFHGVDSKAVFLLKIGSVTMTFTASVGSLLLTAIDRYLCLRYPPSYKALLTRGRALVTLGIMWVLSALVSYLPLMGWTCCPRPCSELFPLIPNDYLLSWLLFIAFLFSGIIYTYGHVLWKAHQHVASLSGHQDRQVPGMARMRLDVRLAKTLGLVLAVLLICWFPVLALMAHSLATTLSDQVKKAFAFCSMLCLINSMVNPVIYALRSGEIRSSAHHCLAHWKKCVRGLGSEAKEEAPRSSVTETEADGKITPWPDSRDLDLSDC

Broadly, the inhibition is the change of the read-out against control, counted positive when it falls. For `CCCCCCC(C)(C)c1cc(OC)c2cc(Cc3ccccc3OC)c(=O)oc2c1`, the inhibition in assay [1] (filed as agonist) and in assay [2] (filed as agonist) was greater than 50% in each case.

`CCCCC1(c2cc(OC)c3cc(Cc4cccnc4)c(=O)oc3c2)CCCCC1`: the figures for the inhibition in assay [1] and in assay [2] were 11% and 6%, respectively. Moreover, the Ki in assay [3] and in assay [4] (read-out: pKi (converted)) was greater than 1000 nM in each case.

For the compound `CCCCC1(c2cc(OC)c3cc(C)c(=O)oc3c2)CCCCC1`, the Ki in assay [3] and in assay [4] (read-out: pKi (converted)) was greater than 1000 nM each time. Besides, the inhibition in assay [2] is 9%.

In the case of `CCCCC(C)(C)c1cc(O)c2cc(Cc3ccccc3C)c(=O)oc2c1`, the inhibition in assay [1] (filed as agonist) worked out at 41%; in assay [2], 30%. The Ki in assay [3] and in assay [4] (read-out: pKi (converted)) was greater than 1000 nM each time.

On to `CCCCC1(c2cc(OC)c3cc(CCC)c(=O)oc3c2)CCCC1`, for which the inhibition in assay [1] was 38%; in assay [2] it was 32%. Further, the Ki in assay [3] and in assay [4] (read-out: pKi (converted)) was greater than 1000 nM in each case.

As for `CCCCC1(c2cc(OC)c3cc(CC)c(=O)oc3c2)CCCCC1`, the figures for the inhibition in assay [1] and in assay [2] were -1% and 6%, respectively. For the same compound, the Ki in assay [3] and in assay [4] (read-out: pKi (converted)) was greater than 1000 nM in each case.

Take `CCCCCCC(C)(C)c1cc(OC)c2cc(Cc3ccccc3C(F)(F)F)c(=O)oc2c1`: the inhibition in assay [1] was 3%; in assay [2], 26%. The Ki in assay [3] and in assay [4] (read-out: pKi (converted)) was greater than 1000 nM in each case.

On to `CCCCC1(c2cc(OC)c3cc(Cc4ccccn4)c(=O)oc3c2)CCCC1`, for which the inhibition was 20% in assay [1] and 29% in assay [2]. Besides, the Ki in assay [3] and in assay [4] (read-out: pKi (converted)) was greater than 1000 nM in each case.

As for `CCCCCCC(C)(C)c1cc(O)c2cc(Cc3ccccc3)c(=O)oc2c1`, the inhibition in assay [1] (filed as agonist) and in assay [2] (filed as agonist) was greater than 50% in each case.

As for `CCCCc1cc2c(OC)cc(C3(CCCC)CCCC3)cc2oc1=O`, the inhibition in assay [1] was -1%; in assay [2], 15%. Further, the Ki in assay [3] and in assay [4] (read-out: pKi (converted)) was greater than 1000 nM in each case.

On to `CCCCC1(c2cc(O)c3cc(C)c(=O)oc3c2)CCCC1`, for which the inhibition is 49% in assay [1] (filed as agonist) and -10% in assay [2]. Besides, the values for the Ki in assay [3] and in assay [4] (read-out: pKi (converted)) were 1000 nM and greater than 1000 nM, respectively.

Consider `CCCCC1(c2cc(OC)c3cc(Cc4cccnc4)c(=O)oc3c2)CCCC1`, for which the results for the inhibition in assay [1] (filed as agonist) and in assay [2] were 40% and 29%, respectively. Moreover, the Ki in assay [3] and in assay [4] (read-out: pKi (converted)) was greater than 1000 nM throughout.

With `CCCCC(C)(C)c1cc(O)c2cc(Cc3ccccc3O)c(=O)oc2c1`, the inhibition in assay [1] turned out to be 37%; in assay [2] it was 24%. Also, the Ki in assay [3] and in assay [4] (read-out: pKi (converted)) was greater than 1000 nM each time.

As for `CCCCCc1cc(O)c2cc(Cc3ccccn3)c(=O)oc2c1`, the Ki in assay [3] and in assay [4] (read-out: pKi (converted)) was greater than 1000 nM throughout.

As to `CCCCC1(c2cc(O)c3cc(-c4ccccc4)c(=O)oc3c2)CCCC1`, the Ki in assay [3] and in assay [4] (read-out: pKi (converted)) was greater than 1000 nM each time.

As to `CCCCC1(c2cc(OC)c3cc(CCC)c(=O)oc3c2)CCCCC1`, the inhibition in assay [1] was -4%; in assay [2] it was 18%. For the same compound, the Ki in assay [3] and in assay [4] (read-out: pKi (converted)) was greater than 1000 nM each time.

Consider `CCCCC1(c2cc(OC)c3cc(Cc4ccncc4)c(=O)oc3c2)CCCC1`, for which the inhibition in assay [1] was 9%; in assay [2] it was 28%. In addition, the Ki in assay [3] and in assay [4] (read-out: pKi (converted)) was greater than 1000 nM each time.

As for `CCCCc1cc2c(OC)cc(C3(CCCC)CCCCC3)cc2oc1=O`, the inhibition in assay [1] was determined as 2%. In addition, the Ki in assay [3] and in assay [4] (read-out: pKi (converted)) was greater than 1000 nM each time.

Regarding `CCCCC1(c2cc(OC)c3cc(-c4ccccc4C)c(=O)oc3c2)CCCC1`, the Ki in assay [3] and in assay [4] (read-out: pKi (converted)) was greater than 1000 nM throughout.

Consider `CCCCCCC(C)(C)c1cc(O)c2cc(Cc3ccccc3O)c(=O)oc2c1`, for which the inhibition in assay [1] (filed as agonist) and in assay [2] (filed as agonist) was greater than 50% throughout.

Regarding `CCCCC1(c2cc(O)c3cc(Cc4ccccn4)c(=O)oc3c2)CCCC1`, the values for the inhibition in assay [1] (filed as agonist) and in assay [2] were 44% and 34%, respectively. The Ki in assay [3] and in assay [4] (read-out: pKi (converted)) was greater than 1000 nM each time.

Turning to `CCCCC1(c2cc(OC)c3cc(CC)c(=O)oc3c2)CCCC1`, the figures for the inhibition in assay [1] and in assay [2] were 0% and 33%, respectively. The Ki in assay [3] and in assay [4] (read-out: pKi (converted)) was greater than 1000 nM throughout.

As to `CCCCCCC(C)(C)c1cc(OC)c2cc(Cc3ccccc3)c(=O)oc2c1`, the inhibition in assay [1] (filed as agonist) and in assay [2] (filed as agonist) was greater than 50% each time.

In the case of `CCCCC(C)(C)c1cc(OC)c2cc(Cc3ccccc3)c(=O)oc2c1`, the inhibition in assay [1] is 39%; in assay [2] (filed as agonist) it was greater than 50%. For the same compound, the Ki in assay [3] is greater than 1000 nM; in assay [4] (read-out: Ki), 486 nM.

Consider `CCCCC1(c2cc(O)c3cc(-c4ccc(C(F)(F)F)cc4)c(=O)oc3c2)CCCC1`, for which, in assay [1], the inhibition is -10%. The Ki in assay [3] and in assay [4] (read-out: pKi (converted)) was greater than 1000 nM throughout.

Consider `CCCCC1(c2cc(OC)c3cc(-c4ccccc4)c(=O)oc3c2)CCCC1`, for which the results for the inhibition in assay [1] and in assay [2] were -8% and 34%, respectively. In addition, the Ki in assay [3] and in assay [4] (read-out: pKi (converted)) was greater than 1000 nM each time.

`CCCCC1(c2cc(OC)c3cc(-c4ccc(C(F)(F)F)cc4)c(=O)oc3c2)CCCC1`: the inhibition was -4% in assay [1] and 3% in assay [2]. In addition, the Ki in assay [3] and in assay [4] (read-out: pKi (converted)) was greater than 1000 nM each time.

For `CCCCC1(c2cc(OC)c3cc(C)c(=O)oc3c2)CCCC1`, the values for the inhibition in assay [1] and in assay [2] were 1% and 16%, respectively. The Ki in assay [3] and in assay [4] (read-out: pKi (converted)) was greater than 1000 nM in each case.

Take `CCCCC1(c2cc(O)c3cc(-c4ccccc4C)c(=O)oc3c2)CCCC1`: the inhibition in assay [1] (filed as agonist) came out at 43%; in assay [2], 4%. In addition, the Ki in assay [3] and in assay [4] (read-out: pKi (converted)) was greater than 1000 nM throughout.

On to `CCCCC1(c2cc(OC)c3cc(Cc4ccncc4)c(=O)oc3c2)CCCCC1`, for which the inhibition turned out to be 3% in assay [1] and 26% in assay [2]. Moreover, the Ki in assay [3] and in assay [4] (read-out: pKi (converted)) was greater than 1000 nM throughout.

For `CCCCCc1cc(O)c2cc(Cc3ccncc3)c(=O)oc2c1`, the inhibition in assay [1] is -5%. Also, the Ki in assay [3] and in assay [4] (read-out: pKi (converted)) was greater than 1000 nM throughout.

As to `CCCCC1(c2cc(O)c3cc(Cc4ccncc4)c(=O)oc3c2)CCCCC1`, the inhibition in assay [1] (filed as agonist) was 46%; in assay [2], 5%. The Ki in assay [3] and in assay [4] (read-out: pKi (converted)) was greater than 1000 nM in each case.

On to `CCCCC1(c2cc(OC)c3cc(Cc4ccccn4)c(=O)oc3c2)CCCCC1`, for which the inhibition in assay [1] amounted to 12%; in assay [2] (filed as agonist), 47%. For the same compound, the Ki in assay [3] and in assay [4] (read-out: pKi (converted)) was greater than 1000 nM throughout.

For `CCCCC1(c2cc(OC)c3cc(-c4ccccc4OC)c(=O)oc3c2)CCCC1`, the Ki in assay [3] and in assay [4] (read-out: pKi (converted)) was greater than 1000 nM each time. The inhibition in assay [2] is -10%.

Consider `CCCCC1(c2cc(O)c3cc(Cc4ccncc4)c(=O)oc3c2)CCCC1`, for which the inhibition in assay [1] is 21%. For the same compound, the Ki in assay [3] and in assay [4] (read-out: pKi (converted)) was greater than 1000 nM each time.

As for `CCCCC1(c2cc(O)c3cc(-c4ccccc4O)c(=O)oc3c2)CCCC1`, the inhibition in assay [1] was -2%. In addition, the Ki in assay [3] and in assay [4] (read-out: pKi (converted)) was greater than 1000 nM in each case.

Take `CCCCCc1cc(O)c2cc(Cc3cccnc3)c(=O)oc2c1`: the Ki in assay [3] and in assay [4] (read-out: pKi (converted)) was greater than 1000 nM each time.
